Laboratory results taken from patent US12029721B2, “Compositions comprising cannabinoids and methods of use” (Schedule 1 Therapeutics, Inc., priority 2021, dated 2024).

Tests used:
Format in all cases: in vivo, mouse
wild-type CD1 mice [1] = assay: Rotarod assay (motor function); conditions: for time to fall from the rod, average across 3 trials on treatment day: FIG. 11, CBD 100 mg/kg, THC 1 mg/kg, 1:1, 100:1 given 60 min before, diazepam 5 mg/kg i.p. 30 min before; for latency to fall from the rod (motor function): FIG. 1A, first cohort, 3 consecutive 5 min trials, caffeine 100 mg/kg i.p. as positive control
Description: Locomotor function was assessed using the rotarod (see Assay description and relevant methods in Example 5). Mice are placed on a turning rod with increasing speed of rotation. Latency to fall from the rod is collected.
The rotarod assay was used to measure impaired motor function in mice. The assay is divided into three trials of 5 min each separated by 10 min of resting time. For each trial, mice are place on a stationary rod. Once the animal is in place, the rod rotation was initiated at a rate of 4 rpm per min, with increasing speed up to 60 rpm at 5 min. Each animal was trained for two days following this protocol and tested on the third day. The latency to fall from the rod was reported as the mean+/−SEM of all the mice for each trial.
A week after Y-maze, motor function was assessed using rotarod. Administration of drugs was performed 60 min prior to testing except for caffeine (positive control) which was administered 30 min prior to testing.
Animals used in this experiment were also used for light aversion and spatial memory, and were tested a third time in the rotarod assay. Briefly, two weeks after the last Y-maze run, animals were subjected to 3 consecutive days of rotarod assay. The first two days were used for habituation, then animals were divided in 6 different treatment groups: • negative control group: vehicle (sunflower oil), • positive control group: diazepam (5 mg/kg i.p.), • CBD (100 mg/kg), • THC (1 mg/kg), • 1:1 (1 mg/kg of both CBD and THC), and • 100:1 (100 mg/kg of CBD and 1 mg/kg of THC).
All treatments were administered 60 minutes prior to the third day of rotarod assay, except for diazepam which was administered 30 minutes prior to the assay.

wild-type CD1 mice [2] = assay: Light/dark assay, CGRP-induced light aversion (Test 1)
Description: All drugs were administered by intraperitoneal (i.p.) injection. CGRP and caffeine were administered at 10 μl/g bodyweight with a 30 g×0.5 needle. CBD, THC and the diverse ratios of CBD:THC were administered at 3.3 μl/g bodyweight with a 23 g×0.5 needle. Rat α-CGRP (Sigma-Aldrich, USA) was administered at 0.1 mg/kg, caffeine (Sigma-Aldrich, USA) was administered at 100 mg/kg, and both were diluted in vehicle, Dulbecco PBS (Hyclone, GE Healthcare Life Science, USA). CBD was administered at 1 or 100 mg/kg, THC was administered at 1 mg/kg, and both were diluted in vehicle sunflower oil (Sigma-Aldrich, USA) Animals were gently held but not anesthetized during injection. Mice were allowed to recover for 30 to 60 min in their home cages before testing (see figure legend and experimental design for precisions).
(§1) The light/dark assay was used to measure the animals' aversion to bright light, which is a surrogate for photophobia. Briefly, mice are placed individually in light/dark boxes that consist in two compartments, one brightly lit and the other not lit, black and fully enclosed. Mice can move freely in between them. An infrared beam tracking system (Med Associates) monitors and quantifies the behavior. Light-aversive animals will spend more time in the dark compartment than naïve animals Data were collected using Activity Monitor version 7.06 from twelve chambers as previously described. Mice were pre-exposed to the chamber once (baseline, data not shown) to reduce exploratory drive, then tested with bright light (25,000 lux). Data were collected for 30 min and analyzed in sequential 5 min intervals. The time in light was reported as the mean+/−SEM of all the mice at each interval and as the mean+/−SEM of the average time per interval for each individual mouse.
Test 1: test the efficacy of CBD and/or THC on CGRP-induced light aversion. Drug administration was performed i.p. by ASW or AK, 60 minutes prior to testing. Thirty minutes before testing, animals were injected a second time with CGRP (0.1 mg/kg) in order to induce the migraine-like state. Only one group was administered with PBS and represents the negative control in this run. The group that received sunflower oil+CGRP represents the positive control. Those injections were also performed i.p by ASW or AK. Thirty minutes later, animals were placed in the light aversion chambers, and tested for 30 minutes.

wild-type CD1 mice [3] = assay: Y-maze assay (spatial memory); conditions: treatments 55 minutes prior to the first trial; CBD 100 mg/kg, THC 1 mg/kg, 1:1, 100:1
Description: The Y-maze assay was used to measure spatial memory using a 3-arm maze. The assay is divided into two trials separated by an intertrial period. During the first trial, one arm (novel arm) is closed, and mice are left to explore the two other arms for 5 min. Mice are then placed back in their home cages for the 2 min intertrial period. During the second trial, mice are able to explore all arms. A mouse with a good spatial memory will enter the previously unexplored (novel) arm more frequently than the other arms. A mouse with poor spatial memory will show no preference. The number of entries and time in the novel arm during the second trial was reported as the mean+/−SEM of all the mice at each interval (30 sec) and as the mean+/−SEM of the total time for the trial for each individual mouse.
A week after Test 2, spatial memory was assessed using Y-maze. Administration of drugs was performed 60 min prior to testing except for CGRP (positive control) which was administered 30 min prior to testing.
Animals used in this experiment were also used for light aversion (and later rotarod). […]
All treatments were administered 55 minutes prior to the first 5-minute trial, and therefore 62 minutes before the second 2-minute trial. No effect of CBD, THC and CBD:THC ratios on spatial memory was assessed by the Y-maze.

wild-type CD1 mice [4] = assay: Light/dark assay without CGRP trigger (Test 2); conditions: FIG. 4, absence of the CGRP trigger; average per 5 minutes
Excerpt: as §1
Test 2: test the possible effects of CBD and/or THC by themselves on light aversion. Animals were given a week to recover. Then the same groups were used for Test 2, and only the second injection was reversed. All groups received vehicle 30 minutes before testing, except for the first group that was administered with CGRP and was the positive control for this test. […]

[5] = FIG. 5A, all mice, co-administered with CGRP
[6] = FIGS. 3A-3B, all mice, drugs i.p. 60 min, CGRP 0.1 mg/kg 30 min before testing, CBD 100 mg/kg, THC 1 mg/kg

Molecule	time to fall from the rod, average across 3 trials on treatment day (wild-type CD1 mice [1])	time spent resting in the dark (CGRP-induced increase) (wild-type CD1 mice [2]; [5])	time spent in the light (CGRP-induced light aversion) (wild-type CD1 mice [2]; [6])	spatial memory: number of entries and time spent in the novel arm during trial 2 (wild-type CD1 mice [3])	latency to fall from the rod (motor function) (wild-type CD1 mice [1])	other results
C=C(C)[C@@H]1CCC(C)=C[C@H]1c1c(O)cc(CCCCC)cc1O [CBD, cannabidiol]	yielded similar results as the vehicle group	neither CBD alone nor the 1:1 ratio reversed this increased resting time	failed to reverse the CGRP-induced decrease in time spent in the light	No effect	–	–
calcitonin gene-related peptide [CGRP]	–	induces a significant increase in the time spent resting in the dark	induces a significant decrease in time spent in the light	–	–	time spent in the light (CGRP-induced light aversion) (wild-type CD1 mice [2]; FIG. 3D, male mice): inducing a strong and significant decrease of the time spent in the light compartment; time spent resting in the light compartment (wild-type CD1 mice [2]; FIG. 6, data as a function of time): does not increase the time spent resting in the light compartment; time spent in the light (CGRP-induced light aversion) (wild-type CD1 mice [2]; FIG. 7, experiment with 30:1, 100:1 as control ratio): induces a significant decrease in time spent in the light; average time in the light (wild-type CD1 mice [4]): spending less time in the light than the veh+veh mice
CN1C(=O)CN=C(c2ccccc2)c2cc(Cl)ccc21 [diazepam]	showed a robust decrease in time to fall from the rod	–	–	–	–	latency to fall from the rod (wild-type CD1 mice [1]; FIG. 1B, rotarod trial with diazepam as positive control): produced the expected increased time to fall
Cn1c(=O)c2c(ncn2C)n(C)c1=O [caffeine]	–	–	–	–	didn't yield the expected results	–
CCCCCc1cc(O)c2c(c1)OC(C)(C)[C@@H]1CCC(C)=C[C@@H]21 [THC, tetrahydrocannabinol]	showed increases in time to fall that were not significant	seem to attenuate the phenotype	failed to reverse the CGRP-induced decrease in time spent in the light	No effect	seemed to increase motor function (trend only)	time spent resting in the dark (CGRP-induced increase) (wild-type CD1 mice [2]; FIG. 5C, male mice): seemed to have an effect
